In US20220372067A1, “3.ALPHA.-HYDROXY-17.BETA.-AMIDE NEUROACTIVE STEROIDS AND COMPOSITIONS THEREOF” (SAGE THERAPEUTICS, INC., priority 2018, published 2022):

Target: GABAA receptor (TBPS binding site), rat brain cortical membranes
Experiment: [35S]-TBPS binding assay, rat brain cortical membranes in the presence of 5 mM GABA
Settings: inhibition of 3 nM [35S]-TBPS binding
Procedure: [^35S]-t-Butylbicyclophosphorothionate (TBPS) binding assays using rat brain cortical membranes in the presence of 5 mM GABA has been described (Gee et al, J. Pharmacol. Exp. Ther. 1987, 241, 346-353; Hawkinson et al, Mol. Pharmacol. 1994, 46, 977-985; Lewin, A. H et al., Mol. Pharmacol. 1989, 35, 189-194).
Briefly, cortices are rapidly removed following decapitation of carbon dioxide-anesthetized Sprague-Dawley rats (200-250 g). The cortices are homogenized in 10 volumes of ice-cold 0.32 M sucrose using a glass/teflon homogenizer and centrifuged at 1500×g for 10 min at 4° C. The resultant supernatants are centrifuged at 10,000×g for 20 min at 4° C. to obtain the P2 pellets. The P2 pellets are resuspended in 200 mM NaCl/50 mM Na—K phosphate pH 7.4 buffer and centrifuged at 10,000×g for 10 min at 4° C. This washing procedure is repeated twice and the pellets are resuspended in 10 volumes of buffer. Aliquots ([…]) of the membrane suspensions are incubated with 3 nM [^35S]-TBPS and […] aliquots of test drug dissolved in dimethyl sulfoxide (DMSO) (final 0.5%) in the presence of 5 mM GABA. The incubation is brought to a final volume of 1.0 mL with buffer. Nonspecific binding is determined in the presence of […] and ranged from 15 to 25%. Following a 90 min incubation at room temp, the assays are terminated by filtration through glass fiber filters (Schleicher and Schuell No. 32) using a cell harvester (Brandel) and rinsed three times with ice-cold buffer. Filter bound radioactivity is measured by liquid scintillation spectrometry. Non-linear curve fitting of the overall data for each drug averaged for each concentration is done using Prism (GraphPad). […] The concentration of test compound producing 50% inhibition (IC50) of specific binding and the maximal extent of inhibition (Imax) are determined for the individual experiments with the same model used for the overall data and then the means±SEM.s of the individual experiments are calculated.
Various compounds are or can be screened to determine their potential as modulators of [^35S]-TBPS binding in vitro. These assays are or can be performed in accordance with the above

| SMILES | IC50 [nM] |
| --- | --- |
| CCOC[C@@]1(O)CC[C@H]2[C@H](CC[C@@H]3[C@@H]2CC[C@]2(C)[C@@H](C(=O)Nc4nc(C)ccc4C)CC[C@@H]32)C1 [Example 59] | 100 to 1000 |
| CCOC[C@@]1(O)CC[C@H]2[C@H](CC[C@@H]3[C@@H]2CC[C@]2(C)[C@@H](C(=O)Nc4cccc(C#N)n4)CC[C@@H]32)C1 [Example 60] | < 100 |
| CCOC[C@@]1(O)CC[C@H]2[C@H](CC[C@@H]3[C@@H]2CC[C@]2(C)[C@@H](C(=O)Nc4nc(C#N)ccc4C)CC[C@@H]32)C1 [Example 61] | 100 to 1000 |
| CCOC[C@@]1(O)CC[C@H]2[C@H](CC[C@@H]3[C@@H]2CC[C@]2(C)[C@@H](C(=O)Nc4ncc(C)cc4C)CC[C@@H]32)C1 [Example 62] | 100 to 1000 |
| CCOC[C@@]1(O)CC[C@H]2[C@H](CC[C@@H]3[C@@H]2CC[C@]2(C)[C@@H](C(=O)Nc4ccnc(C)n4)CC[C@@H]32)C1 [Example 63] | < 100 |
| CCOC[C@@]1(O)CC[C@H]2[C@H](CC[C@@H]3[C@@H]2CC[C@]2(C)[C@@H](C(=O)Nc4cccc(N5CCCC5=O)n4)CC[C@@H]32)C1 [Example 64] | < 100 |
| CCOC[C@@]1(O)CC[C@H]2[C@H](CC[C@@H]3[C@@H]2CC[C@]2(C)[C@@H](C(=O)Nc4ccc(N5CCCC5=O)nc4C)CC[C@@H]32)C1 [Example 65] | < 100 |
| CCOC[C@@]1(O)CC[C@H]2[C@H](CC[C@@H]3[C@@H]2CC[C@]2(C)[C@@H](C(=O)Nc4cccnc4F)CC[C@@H]32)C1 [Example 66, (3R,5R,8R,9R,10S,13S,14S,17S)-3-(ethoxymethyl)-N-(2-fluoropyridin-3-yl)-3-hydroxy-13-methylhexadecahydro-1H-cyclopenta[a]phenanthrene-17-carboxamide] | < 100 |
| CCC[C@@]1(O)CC[C@H]2[C@H](CC[C@@H]3[C@@H]2CC[C@]2(C)[C@@H](C(=O)Nc4ccc(C#N)cn4)CC[C@@H]32)C1 [Example 67, (3R,5R,8R,9R,10S,13S,14S,17S)-N-(5-cyanopyridin-2-yl)-3-hydroxy-13-methyl-3-propylhexadecahydro-1H-cyclopenta[a]phenanthrene-17-carboxamide] | < 100 |
| CCC[C@@]1(O)CC[C@@]2(C)[C@H](CC[C@@H]3[C@@H]2CC[C@]2(C)[C@@H](C(=O)Nc4ccc(C#N)cn4)CC[C@@H]32)C1 [Example 68, (3R,5R,8R,9S,10S,13S,14S,17S)-N-(5-cyanopyridin-2-yl)-3-hydroxy-10, 13-dimethyl-3-propylhexadecahydro-1H-cyclopenta[a]phenanthrene-17-carboxamide] | < 100 |
